Results on five compounds are retold here after patent publication US20100317850A1 (priority 2008, published 2010).

Broadly, the IC50 is the concentration needed to halve the response being measured.

The assay deals with Aβ42 production. Put plainly: Quantification of Aβ peptide in culture of neurons from rat fetus brain (Aβ ELISA). Format: cell-based. Conditions: Neuron, 72 h; rat primary neuronal culture (cerebral cortex, embryonic day 18 Wistar rats); medium collected three days after addition of the compound; Aβx-42 ELISA; read-out: Aβ42 production reducing effect IC50. In outline:
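Primary cortical neurons from embryonic day 18 Wistar rats were cultured 4 days, then exposed to compound in Neurobasal/B27 without 2-ME, final DMSO ≤1%. After three days, medium was collected and Aβx-42 measured undiluted by sandwich ELISA.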
In general terms: In an ELISA, binding on a coated surface is turned into a signal by an enzyme label.

As to `NC1=N[C@@]2(c3cc(NC(=O)c4ccc(OC(F)F)cn4)ccc3F)CCC[C@H]2CS1` (single isomer, unassigned) [Example 175, N-[3-((4aR*,7aS*)-2-amino-4a,5,6,7-tetrahydro-4H-cyclopenta[d][1,3]thiazin-7a-yl)-4-fluorophenyl]-5-difluoromethoxypyridine-2-carboxamide], the IC50 amounted to 9 nM.
Under `CO[C@@H]1CC[C@H]2CSC(N)=N[C@@]2(c2cc(NC(=O)c3ccc(C#N)cn3)ccc2F)C1` (relative stereo) [Example 202, N-[3-((4aR*,7R*,8aS*)-2-amino-7-methoxy-4,4a,5,6,7,8-hexahydrobenzo[d][1,3]thiazin-8a-yl)-4-fluorophenyl]-5-cyanopyridine-2-carboxamide] stands 3 nM; under `CO[C@H]1C[C@H]2CSC(N)=N[C@@]2(c2cc(NC(=O)c3cnc(C(F)F)cn3)ccc2F)C1` (relative stereo) [Example 92, (+)-N-[3-((4aR*,6S*,7aS*)-2-amino-6-methoxy-4a,5,6,7-tetrahydro-4H-cyclopenta[d][1,3]thiazin-7a-yl)-4-fluorophenyl]-5-difluoromethylpyrazine-2-carboxamide], 5 nM.
`NC1=N[C@@]2(c3cccc(-c4cccnc4F)c3)CN(c3ncccn3)C[C@H]2CS1` (racemic) [Example 37, (±)-(4aR*,7aS*)-7a-[3-(2-fluoropyridin-3-yl)phenyl]-6-pyrimidin-2-yl-4,4a,5,6,7,7a-hexahydropyrrolo[3,4-d][1,3]thiazin-2-ylamine]: the IC50 worked out at 29 nM.
Turning to `COC[C@H]1OC[C@]2(c3cc(NC(=O)c4cnc(C(F)F)cn4)ccc3F)N=C(N)SC[C@H]12` [Example 68, N-[3-((4aS,5S,7aS)-2-amino-5-methoxymethyl-4a,5-dihydro-4H-furo[3,4-d][1,3]thiazin-7a-yl)-4-fluorophenyl]-5-difluoromethylpyrazine-2-carboxamide], the concentration for half-maximal inhibition (IC50) is 6 nM.
